Experimental data as given in patent publication US20130005568A1, “SAFENED HERBICIDAL MIXTURES” (E.I. DU PONT DE NEMOURS AND COMPANY, priority 2011, published 2013).

What was measured:
[1] = test system: Pioneer 39K40 hybrid maize; assay: Test A: visual plant response rating, postemergence herbicide treatments alone and with Compound 1; format: in vivo, Zea mays L. spp. indentata Sturt.; details: Compound 1 alone 125 g ai/ha; Test A
Protocol: (§1) For all of the following biological tests, plant response ratings were based on a 0-100 scale where zero is growth equivalent to that of untreated plants (no plant response) and 100 represents no additional growth occurring after herbicide treatment.
Pioneer 39K40 hybrid maize used in this test (and also Tests B and C) is particularly sensitive to herbicides that inhibit the acetohydroxy acid synthase enzyme. Herbicide mixtures were dissolved/dispersed in a non-phytotoxic liquid carrier and were sprayed postemergence to Pioneer 39K40 hybrid maize (Zea mays L. spp. indentata Sturt.) in the third collar growth stage (extended leaf height was 50-60 cm). Treated plants were grown under greenhouse conditions for two weeks before visual evaluations of plant responses were recorded.

[2] = test system: Pioneer 39K40 hybrid maize; assay: Test B: visual plant response rating, postemergence herbicides with Compound 1 rate series; format: in vivo, Zea mays L. spp. indentata Sturt.; details: Compound 1 alone 125 g ai/ha; Test B
Protocol: as §1
Herbicide mixtures were dissolved/dispersed in a non-phytotoxic liquid carrier and were sprayed postemergence to Pioneer 39K40 hybrid maize (Zea mays L. spp. indentata Sturt.) in the third collar growth stage (extended leaf height was 50-60 cm). Treated plants were grown under greenhouse conditions for two weeks before visual evaluations of plant responses were recorded.

[3] = test system: spring wheat; assay: Test E: postemergence plant response rating; format: in vivo, Triticum aestivum L.; details: Compound 1 alone 125 g ai/ha; Test E plants
Text: as §1
(§2) Herbicide mixtures were formulated, dissolved/dispersed in water containing 0.25% non-ionic surfactant, sprayed postemergence to the crops: winter wheat (Triticum aestivum L.), spring wheat (Triticum aestivum L.), winter barley (Hordeum vulgare L.) and spring barley (Hordeum vulgare L.), and the weeds: blackgrass (Alopecurus myosuroides Huds.), lambsquarters (Chenopodium album L.) and pigweed (Amaranthus retroflexus L.). Treated plants were grown under greenhouse conditions for two weeks before visual evaluations of plant responses were recorded.

[4] = test system: winter wheat; assay: Test E: postemergence plant response rating; format: in vivo, Triticum aestivum L.; details: Compound 1 alone 125 g ai/ha; Test E plants
Text: as §1, §2

[5] = test system: spring barley; assay: Test E: postemergence plant response rating; format: in vivo, Hordeum vulgare L.; details: Compound 1 alone 125 g ai/ha; Test E plants
Text: as §1, §2

[6] = test system: winter barley; assay: Test E: postemergence plant response rating; format: in vivo, Hordeum vulgare L.; details: Compound 1 alone 125 g ai/ha; Test E plants
Text: as §1, §2

[7] = test system: lambsquarters; assay: Test E: postemergence plant response rating; format: in vivo, Chenopodium album L.; details: Compound 1 alone 125 g ai/ha; Test E plants
Text: as §1, §2

[8] = test system: pigweed; assay: Test E: postemergence plant response rating; format: in vivo, Amaranthus retroflexus L.; details: Compound 1 alone 125 g ai/ha; Test E plants
Text: as §1, §2

[9] = test system: winter wheat; assay: Test F: preemergence plant response rating; format: in vivo, Triticum aestivum L.; details: Compound 1 alone 125 g ai/ha; Test F plants
Text: as §1
(§3) Herbicide mixtures were formulated, dissolved/dispersed in water, and sprayed preemergence to the crops: winter wheat (Triticum aestivum L.) and winter barley (Hordeum vulgare L.), and the weed: blackgrass (Alopecurus myosuroides Huds). Treated plants were grown under greenhouse conditions for three weeks before visual evaluations of plant responses were recorded.

[10] = test system: winter barley; assay: Test F: preemergence plant response rating; format: in vivo, Hordeum vulgare L.; details: Compound 1 alone 125 g ai/ha; Test F plants
Text: as §1, §3

[11] = test system: Zoysia grass; assay: Test G: turf grass and weed postemergence plant response rating; format: in vivo, Zoysia japonica Steud.; details: Compound 1 alone 125 g ai/ha; Test G plants
Text: as §1
(§4) Plants of the turf grass species: zoysia (Zoysia japonica Steud.), bermudagrass (Cynodon dactylon (L.) Pers.), tall fescue (Festuca arundinacea Shreib.), creeping bentgrass (Agrostis stoonoifera L.), perennial ryegrass (Lolium perenne L.) and hard fescue (Festuca species) were grown under greenhouse conditions for four months. Plants were clipped as needed to plant heights of 5-10 cm. Weeds typically found in turf: annual bluegrass (Poa annua L.), common chickweed (Stellaria media (L.) Vill.), large crabgrass (Digitaria sanguinales (L.) Scop.), dandelion (Taraxacum officinale Weber in Wiggers), goosegrass (Eleusine indica (L.) Gaertn.), henbit (Lamium amplexicaule L.), venice mallow (Hibiscus trionium L.) and purple nutsedge (Cyperus rotundus L.) were also grown under greenhouse conditions so that plants were 5-20 cm tall when they were treated. Herbicide mixtures were formulated, dissolved/dispersed in water containing 0.25% non-ionic surfactant, and sprayed postemergence to these turf grasses and weeds. Treated plants were grown under greenhouse conditions for three weeks before visual evaluations of plant responses were recorded.

[12] = test system: Bermudagrass; assay: as above; format: in vivo, Cynodon dactylon (L.) Pers.; details: Compound 1 alone 125 g ai/ha; Test G plants
Text: as §1
Plants of the turf grass species: zoysia (Zoysia japonica Steud.), bermudagrass (Cynodon dactylon (L.) Pers.), tall fescue (Festuca arundinacea Shreib.), creeping bentgrass (Agrostis stoonoifera L.), perennial ryegrass (Lolium perenne L.) and hard fescue (Festuca species) were grown under greenhouse conditions for four months. Plants were clipped as needed to plant heights of 5-10 cm. […] Herbicide mixtures were formulated, dissolved/dispersed in water containing 0.25% non-ionic surfactant, and sprayed postemergence to these turf grasses and weeds. Treated plants were grown under greenhouse conditions for three weeks before visual evaluations of plant responses were recorded.

[13] = test system: Creeping bentgrass; assay: as above; format: in vivo, Agrostis stoonoifera L.; details: Compound 1 alone 125 g ai/ha; Test G plants
Text: as §1, §4

[14] = test system: Perennial ryegrass; assay: as above; format: in vivo, Lolium perenne L.; details: Compound 1 alone 125 g ai/ha; Test G plants
Text: as §1, §4

[15] = test system: Large crabgrass; assay: as above; format: in vivo, Digitaria sanguinales (L.) Scop.; details: Compound 1 alone 125 g ai/ha; Test G plants
Text: as §1, §4

[16] = test system: Henbit; assay: as above; format: in vivo, Lamium amplexicaule L.; details: Compound 1 alone 125 g ai/ha; Test G plants
Text: as §1, §4

[17] = test system: Purple nutsedge; assay: as above; format: in vivo, Cyperus rotundus L.; details: Compound 1 alone 125 g ai/ha; Test G plants
Text: as §1, §4

[18] = test system: velvetleaf; assay: Test I: postemergence plant response rating; format: in vivo, Abutilon theophrasti Medik.; details: Compound 1 alone 125 g ai/ha; Test I plants
Text: as §1
Herbicide mixtures were formulated, dissolved/dispersed in water containing 0.25% non-ionic surfactant, and sprayed postemergence to the crop: soybean (Glycine max (L.) Merr.) at the 2-leaf growth stage and to weeds: lambsquarters (Chenopodium album L.) and velvetleaf (Abutilon theophrasti Medik.). Weed species were 5-10 cm tall when treated. Treated plants were grown under greenhouse conditions for two weeks before visual evaluations of plant responses were recorded.

[19] = test system: palisade grass; assay: Test K: pasture grass postemergence plant response rating, field conditions; format: in vivo, Brachiaria brizantha (Hochst. ex A. Rich) Stapf; details: Compound 1 alone 140 g ai/ha; Test K plants
Text: as §1
(§5) Herbicide mixtures were formulated, dissolved/dispersed in water containing 0.25% non-ionic surfactant, and sprayed postemergence to the pasture grasses: Surinam grass (Brachiaria decumbens Stapf), palisade grass (Brachiaria brizantha (Hochst. ex A. Rich) Stapf) and Alexandergrass (Brachiaria plantaginea (Link) A. S. Hitchc.) approximately 10-30 cm tall (extended leaf height). This test was conducted under field conditions. Visual evaluations of plant responses were recorded four weeks after the plants were treated.

[20] = test system: Alexandergrass; assay: as above; format: in vivo, Brachiaria plantaginea (Link) A. S. Hitchc.; details: Compound 1 alone 140 g ai/ha; Test K plants
Text: as §1, §5

Measured: injury, Compound 1 alone

Cc1ccccc1S(=O)(=O)NC(N)=O [Compound 1, N-(aminocarbonyl)-2-methylbenzenesulfonamide]
no injury: all assays above
